Data on 13 molecules can be found in patent publication US12343347B2 (Biohaven Pharmaceutical Holding Company Ltd., priority 2012, dated 2025).

The subject of data set [1] is amyotrophic lateral sclerosis (ALS) patients. The settings on record: after 1.5 years of treatment; cited from earlier work.
The nature of data set [2]: Stability in Simulated Gastric Fluid (SGF). Type of data set: in vitro ADME. The conditions noted are these: SGF:acetonitrile 9:1, 0.01 mg/mL, 37° C. On the procedure: (§1) Stability in Simulated Gastric Fluid (SGF) and Simulated Intestinal Fluid (SIF). Procedure from Baudy et. al. (J. Med. Chem. 2009, 52, 771-778) used. The physiological stability of pro-drugs was determined by examining the stability of the compound in SGF, and SIF at 37° C. The compounds were prepared in a 9:1 mixture of the appropriate test component (SGF, SIF) and acetonitrile to a final concentration of 0.01 mg/mL. The samples were thoroughly mixed and maintained at 37° C. Each sample was injected consecutively onto an Agilent 1100 system (Luna C18, 3 μm, 50 mm×3 mm; 1 mL/min; mobile phase of 0.1% trifluoroacetic acid in water/0.1% trifluoroacetic acid in acetonitrile) after a 3 h period. The percent remaining of pro-drug was calculated by comparing the area of pro-drug compound versus riluzole generated. The identities of the parent compounds and conversion products were confirmed by LC/MS.

The nature of data set [3]: Plasma stability in fresh human plasma. It is filed as in vitro ADME. The conditions noted are these: 1 uM, 37° C. The protocol: (§2) Plasma Stability: Assessment of plasma stability was carried out by individual incubations of drug candidates in fresh mouse or human control plasma at a concentration of 1 uM for 1 hour at 37° C. After which, the samples were de-proteinized by addition of 2 volumes of acetonitrile containing 0.1% formic acid and internal standard, vortex mixed for 2 minutes and centrifuged at 4000 rpm for 10 minutes to pellet precipitated protein. The resulting supernatant containing the drug candidates was diluted 5-fold with water containing 0.1% formic acid and submitted to LC-MS/MS analysis. All determinations were done in triplicate. […]
(§3) LC-MS/MS Analysis: An aliquot from each incubation was analyzed by LC-MS/MS with SRM detection in the positive ionization mode using an ABSciex API 5500 QTrap Mass Spectrometer interfaced via the ABSciex Turbo V IonSpray source (ESI) to an Eksigent ExpressHT LC system. […] A fast gradient, from 15 to 85% organic in 2.5 minutes, with run time of 5.0 minutes, and flow rate of 50 uL/min was utilized. Peak areas were integrated using MultiQuant v2.0 software from ABSciex.

A short description of data set [4]: Plasma stability in fresh mouse plasma. Type of data set: in vitro ADME. The conditions noted are these: 1 uM, 37° C. The protocol: as §2, §3
Data set [5] is described as follows: Stability in Simulated Intestinal Fluid (SIF). It is filed as in vitro ADME. The settings on record: SIF:acetonitrile 9:1, 0.01 mg/mL, 37° C. The protocol: as §1
Data set [6] can be described thus: Metabolic stability in pooled human liver microsomes. It is filed as in vitro ADME. The settings on record: human liver microsomes 0.5 mg/mL, 1 uM, NADPH, 37° C. The protocol:
(§4) Metabolic Stability: In vitro metabolic stability was determined in pooled mouse or human liver microsomes (BD Gentest) at a protein concentration of 0.5 mg/mL in reaction buffer (100 mM KH2PO4, pH 7.4 and 12 mM MgCl2). Each drug candidate was added to a final concentration of 1 uM. This mixture was pre-warmed to 37° C. for 10 minutes prior to starting the reaction with the addition of β-Nicotinamide adenine dinucleotide 2′-phosphate reduced (NADPH) to a final concentration of 1 mM. A parallel incubation lacking NADPH served as the control. After incubation for 30 min at 37° C., the reactions were quenched by the addition of acetonitrile containing 0.1% formic acid and internal standard, vortex mixed for 2 minutes and centrifuged at 4000 rpm for 10 minutes to pellet the precipitated protein. The resulting supernatant containing the drug candidate and its potential metabolites was diluted 5-fold with water containing 0.1% formic acid and submitted to LC-MS/MS analysis. […]
as §3
Background: Microsomes from liver hold many membrane-bound enzymes, among them those of drug oxidation.

Data set [7] is described as follows: Metabolic stability in pooled mouse liver microsomes. Type of data set: in vitro ADME. The conditions noted are these: mouse liver microsomes 0.5 mg/mL, 1 uM, NADPH, 37° C. On the procedure: as §4, §3

As for `Nc1nc2ccc(OC(F)(F)F)cc2s1` [riluzole, 6-(trifluoromethoxy)-1,3-benzothiazol-2-amine], the increase of lifespan in data set [1] is 2-3 months.
On to `N[C@@H](COCc1ccccc1)C(=O)Nc1nc2ccc(OC(F)(F)F)cc2s1` [Cpd 10, (S)-2-Amino-3-benzyloxy-N-(6-trifluoromethoxy-benzothiazol-2-yl)-propionamide], for which the “SGF (3 hours), percent of pro-drug metabolized to riluzole” value (“SGF (3 hours), percent” for short) in data set [2] is on record as 0%. Further, the “Plasma Stability Human (1 hour), percent of pro-drug metabolized to riluzole” value (from here on “Plasma Stability Human (1 hour), percent”) in data set [3] was 9%. Also, the “Plasma Stability mouse (1 hour), percent of pro-drug metabolized to riluzole” value (“Plasma Stability mouse (1 hour), percent” below) in data set [4] was 52%. Moreover, in data set [5], the “SIF (3 hours), percent of pro-drug metabolized to riluzole” value (shortened to “SIF (3 hours), percent”) is reported as 0%. Further, in data set [6], the “Metabolic Stability human (30 minutes), percent of pro-drug metabolized to riluzole” value amounted to 15%. Also, in data set [7], the “Metabolic Stability mouse (30 minutes), percent of pro-drug metabolized to riluzole” value came out at 0%.
In the case of `O=C(Cc1ccccc1[N+](=O)[O-])Nc1nc2ccc(OC(F)(F)F)cc2s1` [Cpd 27, 2-(2-Nitro-phenyl)-N-(6-trifluoromethoxy-benzothiazol-2-yl)-acetamide], the “SGF (3 hours), percent” value in data set [2] is on record as 0%. In addition, in data set [3], the “Plasma Stability Human (1 hour), percent” value was 13%. In addition, the “Plasma Stability mouse (1 hour), percent” value in data set [4] came to 0%. For the same molecule, the “SIF (3 hours), percent” value in data set [5] is given as 0%. In addition, in data set [6], the “Metabolic Stability human (30 minutes), percent of pro-drug metabolized to riluzole” value amounted to 22%. In addition, in data set [7], the “Metabolic Stability mouse (30 minutes), percent of pro-drug metabolized to riluzole” value was 59%.
As to `O=C(CCC(=O)Nc1nc2ccc(OC(F)(F)F)cc2s1)NCc1cccnc1` [Cpd 23, N-Pyridin-3-ylmethyl-N′-(6-trifluoromethoxy-benzothiazol-2-yl)-succinamide], the “SGF (3 hours), percent” value in data set [2] is recorded as 0%. The “Plasma Stability Human (1 hour), percent” value in data set [3] is recorded as 0%. The “Plasma Stability mouse (1 hour), percent” value in data set [4] turned out to be 26%. Further, in data set [5], the “SIF (3 hours), percent” value is reported as 10%. Moreover, the “Metabolic Stability human (30 minutes), percent of pro-drug metabolized to riluzole” value in data set [6] is given as 4%. In addition, in data set [7], the “Metabolic Stability mouse (30 minutes), percent of pro-drug metabolized to riluzole” value is 0%.
With `COC(=O)CCC(=O)Nc1nc2ccc(OC(F)(F)F)cc2s1` [Cpd 21, N-(6-Trifluoromethoxy-benzothiazol-2-yl)-succinamic acid methyl ester], the “SGF (3 hours), percent” value in data set [2] was 3%. Moreover, the “Plasma Stability Human (1 hour), percent” value in data set [3] amounted to 25%. Moreover, the “Plasma Stability mouse (1 hour), percent” value in data set [4] amounted to 99%. In data set [5], the “SIF (3 hours), percent” value was 0%. Also, the “Metabolic Stability human (30 minutes), percent of pro-drug metabolized to riluzole” value in data set [6] is reported as 34%. For the same molecule, the “Metabolic Stability mouse (30 minutes), percent of pro-drug metabolized to riluzole” value in data set [7] worked out at 77%.
Consider `CCCOC(=O)Nc1nc2ccc(OC(F)(F)F)cc2s1` [Cpd 14, (6-Trifluoromethoxy-benzothiazol-2-yl)-carbamic acid propyl ester], for which, in data set [2], the “SGF (3 hours), percent” value was 0%. In addition, the “Plasma Stability Human (1 hour), percent” value in data set [3] came out at 0%. Moreover, in data set [4], the “Plasma Stability mouse (1 hour), percent” value was determined as 0%. For the same molecule, in data set [5], the “SIF (3 hours), percent” value is 0%. The “Metabolic Stability human (30 minutes), percent of pro-drug metabolized to riluzole” value in data set [6] is on record as 34%. In addition, the “Metabolic Stability mouse (30 minutes), percent of pro-drug metabolized to riluzole” value in data set [7] is given as 15%.
For the molecule `C[C@H](N)C(=O)Nc1nc2ccc(OC(F)(F)F)cc2s1` [Cpd 7, (S)-2-Amino-N-(6-trifluoromethoxy-benzothiazol-2-yl)-propionamide], the “SGF (3 hours), percent” value in data set [2] is given as 0%. In addition, the “Plasma Stability Human (1 hour), percent” value in data set [3] stood at 10%. Also, the “Plasma Stability mouse (1 hour), percent” value in data set [4] was 28%. For the same molecule, the “SIF (3 hours), percent” value in data set [5] was 50%. In addition, the “Metabolic Stability human (30 minutes), percent of pro-drug metabolized to riluzole” value in data set [6] is 0%. The “Metabolic Stability mouse (30 minutes), percent of pro-drug metabolized to riluzole” value in data set [7] is on record as 1%.
Turning to `NCCCCC(=O)Nc1nc2ccc(OC(F)(F)F)cc2s1` [Cpd 26, 5-Amino-pentanoic acid (6-trifluoromethoxy-benzothiazol-2-yl)-amide], the “SGF (3 hours), percent” value in data set [2] is 0%. In addition, in data set [3], the “Plasma Stability Human (1 hour), percent” value is recorded as 5%. The “Plasma Stability mouse (1 hour), percent” value in data set [4] is 0%. In addition, the “SIF (3 hours), percent” value in data set [5] is 0%. In addition, the “Metabolic Stability human (30 minutes), percent of pro-drug metabolized to riluzole” value in data set [6] turned out to be 19%. Further, in data set [7], the “Metabolic Stability mouse (30 minutes), percent of pro-drug metabolized to riluzole” value is 66%.
Turning to `CNCCCCC(=O)Nc1nc2ccc(OC(F)(F)F)cc2s1` [Cpd 25, 5-Methylamino-pentanoic acid (6-trifluoromethoxy-benzothiazol-2-yl)-amide], the “SGF (3 hours), percent” value in data set [2] was 0%. The “Plasma Stability Human (1 hour), percent” value in data set [3] is 0%. Further, the “Plasma Stability mouse (1 hour), percent” value in data set [4] worked out at 0%. Also, in data set [5], the “SIF (3 hours), percent” value is listed as 0%. In data set [6], the “Metabolic Stability human (30 minutes), percent of pro-drug metabolized to riluzole” value is on record as 0%. In addition, in data set [7], the “Metabolic Stability mouse (30 minutes), percent of pro-drug metabolized to riluzole” value is reported as 78%.
Regarding `O=C(O)CCC(=O)Nc1nc2ccc(OC(F)(F)F)cc2s1` [Cpd 20, N-(6-Trifluoromethoxy-benzothiazol-2-yl)-succinamic acid], the “SGF (3 hours), percent” value in data set [2] is listed as 0%. For the same molecule, the “Plasma Stability Human (1 hour), percent” value in data set [3] was 16%. Further, the “Plasma Stability mouse (1 hour), percent” value in data set [4] is given as 0%. For the same molecule, the “SIF (3 hours), percent” value in data set [5] was 0%. Besides, the “Metabolic Stability human (30 minutes), percent of pro-drug metabolized to riluzole” value in data set [6] is listed as 0%. In data set [7], the “Metabolic Stability mouse (30 minutes), percent of pro-drug metabolized to riluzole” value is given as 70%.
With `CN(C)CCOC(=O)Nc1nc2ccc(OC(F)(F)F)cc2s1` [Cpd 18, (6-Trifluoromethoxy-benzothiazol-2-yl)-carbamic acid 2-dimethylamino-ethyl ester], the “SGF (3 hours), percent” value in data set [2] is on record as 0%. The “Plasma Stability Human (1 hour), percent” value in data set [3] was found to be 0%. Besides, the “Plasma Stability mouse (1 hour), percent” value in data set [4] turned out to be 3%. Moreover, the “SIF (3 hours), percent” value in data set [5] is 0%. In addition, in data set [6], the “Metabolic Stability human (30 minutes), percent of pro-drug metabolized to riluzole” value amounted to 10%. Also, the “Metabolic Stability mouse (30 minutes), percent of pro-drug metabolized to riluzole” value in data set [7] stood at 13%.
For the molecule `CN(C)CCCOC(=O)Nc1nc2ccc(OC(F)(F)F)cc2s1` [Cpd 19, (6-Trifluoromethoxy-benzothiazol-2-yl)-carbamic acid 3-dimethylamino-propyl ester], the “SGF (3 hours), percent” value in data set [2] was 0%. Moreover, the “Plasma Stability Human (1 hour), percent” value in data set [3] came to 0%. Also, the “Plasma Stability mouse (1 hour), percent” value in data set [4] was 0%. Moreover, in data set [5], the “SIF (3 hours), percent” value is listed as 0%. Besides, the “Metabolic Stability human (30 minutes), percent of pro-drug metabolized to riluzole” value in data set [6] is listed as 0%. For the same molecule, in data set [7], the “Metabolic Stability mouse (30 minutes), percent of pro-drug metabolized to riluzole” value stood at 71%.
For the molecule `CC(C)COC(=O)Nc1nc2ccc(OC(F)(F)F)cc2s1` [Cpd 16, (6-Trifluoromethoxy-benzothiazol-2-yl)-carbamic acid isobutyl ester], the “SGF (3 hours), percent” value in data set [2] was 5%. In addition, the “Plasma Stability Human (1 hour), percent” value in data set [3] came out at 0%. Moreover, the “Plasma Stability mouse (1 hour), percent” value in data set [4] was determined as 0%. In addition, the “SIF (3 hours), percent” value in data set [5] is recorded as 0%. The “Metabolic Stability human (30 minutes), percent of pro-drug metabolized to riluzole” value in data set [6] was 14%. The “Metabolic Stability mouse (30 minutes), percent of pro-drug metabolized to riluzole” value in data set [7] is on record as 23%.
